Results: patent publication US4758580A, “Inhibiting growth of tumors with certain substituted phenoxy dimethyl alkanoic acids, esters or salts” (Yamanouchi Pharmaceutical Co., Ltd., priority 1985, dated 1988)
In brackets after ≈: the same amount, converted by molar mass.

Tests used:
MM-46 solid tumor = assay: Test against mouse mammalian MM-46 solid tumor; format: in vivo, C3 H/He/SLC mice; details: 1-9 Days
Method: MM-46 Tumor cells, 1×10^6, on Day 7 after intraperitoneal transplantation to C3 H/He/SLC mice were subcutaneously transplanted to the left abdomen of C3 H/He/SLC mice (5 week age, male) of 8 mice each being grouped in one (21 mice for the control group). The active component was orally administered in a definite dose 24 hours after the transplantation according to the schedule shown in Table 2. An effect of tumor growth inhibition was compared by measuring the long diameter and short diameter of the tumor on Days 14 and 21 after the transplantation, calculating the tumor size (mm^2) and determining a tumor growth inhibition rate of the active component-administered group to the control group.

Ehrlich ascites tumor = assay: Anti-tumor effect against Ehrlich ascites tumor; format: in vivo, ddY/SLC mice
Method: Ehlrich tumor cells, 1×10^6, on Day 7 after intraperitoneal transplantation to ddY/SLC mice were intraperitoneally transplanted to ddY/SLC mice (5 week age, male) of 10 mice each being grouped in one. The active component was intraperitoneally administered in a definite dose 24 hours after the transplantation according to the schedule shown in Table 4. An effect of tumor growth inhibition was evaluated by a percentage of the median survival day of the administered group versus that of the control group, according to the following equation.
T: median survival day of the administered group
C: median survival day of the control group

[1] = test system: liver cancer (MH-134) cells; assay: Inhibition of spontaneous metastasis (to the lymph node) of liver cancer (MH-134) cells in mice; format: in vivo, C3 H/He/SLC mice; details: 20th day
Method: (a) Inhibition of spontaneous metastasis (to the lymph node) of liver cancer (MH-134) cells in mice
MH-134 tumor cells, 1×10^6, on Day 7 after intraperitoneal transplantation to C3 H/He/SLC mice were transplanted to the right leg. On the 11th day after the transplantation, the right leg portion wherein the cancer cells were transplanted were cut off. The test compounds were administered orally in a definite dose 24 hours after the transplantation. In order to confirm metastasis-inhibiting effect, on 20th day of the transplantation the mice were anatomised to observe the metastasis to the lymph node in the inguinal portion. [formula] Further, the weight of the lymph node metastasis tumor in the inguinal portion of anatomised mice was measured. [formula]

melanoma BL-6 = assay: Inhibition of experimental metastasis (to the lung) of melanoma BL-6 in mice; format: in vivo, male BDF1 /SLC mice; details: 22th day
Method: (b) Inhibition of experimental metastasis (to the lung) of melanoma BL-6 in mice
BL-6 cancer cells, 5×10^4, were inoculated into the tail veins of male BDF1 /SLC mice (6 week age) of 6 mice each being grouped in one (13 mice for the control group). The test compounds were administered orally in a definite dose 24 hours after the inoculation. In order to see metastasis-inhibitory effect, on 22th day after the inoculation, the mice were anatomised to observe the metastasis to the lungs. The degree of metastasis was evaluated by the number of pulmonary nodules. [formula] T: Median number of pulmonary nodules of the administered group C: Median number of pulmonary nodules of the control group

MH 134 (liver cancer) = assay: In vitro cytotoxicity against mouse tumor cells, MH 134; format: cell-based; details: 72 h, MH 134, 3 days, 37° C., trypan blue, read-out: IC50
Method: A suspension of cells in a culture medium was transferred into wells in a microplate in an amount of 1×10^5 cells/wall. Test sample diluted with a culture medium was added to the suspension in each well, and the mixture was incubated on the medium at 37° C. for 3 days in atmosphere of air containing 5% carbon dioxide. Thereafter, the incubated cells were recovered from the microplate and the number of live cells was counted by the dye exclusion test using a 0.5% solution of trypan blue and by using a hemocytomer.

[2] = Toxicity test (acute, oral); details: mouse, in vivo, ddY mice, male
Method: The active component was orally administered to ddY mice (mean body weight of 35 g, male). No example of death was noted up to the dose of 5,000 mg/kg. Accordingly, the acute toxicity of Compound B is greater than 5,000 mg/kg. (Effects)

[3] = 100 mg/kg i.p., 1, 3, 6, 8 & 10 Days
[4] = 100 mg/kg oral, 1, 3, 5, 7, 9, 11, 13 and 15 days
[5] = 200 mg/kg oral, 1, 3, 5, 7, 9, 11, 13 and 15 days
[6] = 400 mg/kg oral, 1, 3, 5, 7, 9, 11, 13 and 15 days
[7] = 200 mg/kg oral, 1, 2, 3, 5, 6, 7, 8, 9 and 10 days
[8] = 400 mg/kg oral, 1, 2, 3, 5, 6, 7, 8, 9 and 10 days

CCOC(=O)C(C)(C)CCCCOc1ccc(OCCCCCn2ccnc2)cc1 [Compound B]
Growth Inhibition Rate (MM-46 solid tumor; Day 14, 100 mg/kg p.o.): 40.4% | Size of Tumor (MM-46 solid tumor; Day 14, 100 mg/kg p.o.): 150.1 ± 52.1 mm^2 | Growth Inhibition Rate (MM-46 solid tumor; Day 14, 200 mg/kg p.o.): 41.3% | Size of Tumor (MM-46 solid tumor; Day 14, 200 mg/kg p.o.): 147.9 ± 56.2 mm^2 | Growth Inhibition Rate (MM-46 solid tumor; Day 14, 400 mg/kg p.o.): 47.8% | Size of Tumor (MM-46 solid tumor; Day 14, 400 mg/kg p.o.): 131.5 ± 55.2 mm^2 | Growth Inhibition Rate (MM-46 solid tumor; Day 21, 100 mg/kg p.o.): 55.8% | Size of Tumor (MM-46 solid tumor; Day 21, 100 mg/kg p.o.): 149.4 ± 84.8 mm^2 | Growth Inhibition Rate (MM-46 solid tumor; Day 21, 200 mg/kg p.o.): 53.4% | Size of Tumor (MM-46 solid tumor; Day 21, 200 mg/kg p.o.): 147.5 ± 65.3 mm^2 | Growth Inhibition Rate (MM-46 solid tumor; Day 21, 400 mg/kg p.o.): 53.4% | Size of Tumor (MM-46 solid tumor; Day 21, 400 mg/kg p.o.): 157.4 ± 104.0 mm^2 | Median Survival Day (Ehrlich ascites tumor; 15 mg/kg i.p., 1-9 Days): 16.0 days | No. of 40-day Survivors (Ehrlich ascites tumor; 15 mg/kg i.p., 1-9 Days): 0/8 | T/C (median survival) (Ehrlich ascites tumor; 15 mg/kg i.p., 1-9 Days): 106% | Median Survival Day (Ehrlich ascites tumor; 30 mg/kg i.p., 1-9 Days): 22.5 days | No. of 40-day Survivors (Ehrlich ascites tumor; 30 mg/kg i.p., 1-9 Days): 1/8 | T/C (median survival) (Ehrlich ascites tumor; 30 mg/kg i.p., 1-9 Days): 150.0% | Median Survival Day (Ehrlich ascites tumor; 60 mg/kg i.p., 1-9 Days): 21.5 days | No. of 40-day Survivors (Ehrlich ascites tumor; 60 mg/kg i.p., 1-9 Days): 2/8 | T/C (median survival) (Ehrlich ascites tumor; 60 mg/kg i.p., 1-9 Days): 143.3% | Median Survival Day (Ehrlich ascites tumor; [3]): 26.5 days | No. of 40-day Survivors (Ehrlich ascites tumor; [3]): 2/8 | T/C (median survival) (Ehrlich ascites tumor; [3]): 176.7% | Growth inhibition of the metastasis tumor [1, 4]: 33.8% | Metastasis-inhibition rate [1, 4]: 8.5% | Growth inhibition of the metastasis tumor [1, 5]: 79.4% | Metastasis-inhibition rate [1, 5]: 41.2% | Growth inhibition of the metastasis tumor [1, 6]: 80.4% | Metastasis-inhibition rate [1, 6]: 73.9% | Pulmonary metastasis-inhibition rate (melanoma BL-6; [7]): 50.0% | The number of pulmonary nodules, median (melanoma BL-6; [7]): 10.5 | The number of pulmonary nodules, range (melanoma BL-6; [7]): 1-20 | Pulmonary metastasis-inhibition rate (melanoma BL-6; [8]): 69.0% | The number of pulmonary nodules, median (melanoma BL-6; [8]): 6.5 | The number of pulmonary nodules, range (melanoma BL-6; [8]): 1-14 | IC50 (MH 134 (liver cancer)): 2.2 µg/mL (≈ 5.28 µM) | LD50 [2]: > 5000 mg/kg
